These results are taken from ChEMBL document CHEMBL3045808, “Insect antifeedants from Munronia henryi: structure of munroniamide” (2003).

Test [1] relates to Pieris brassicae. The test can be described thus: Antifeedant activity against fasted third-instar larvae of Pieris brassicae infested in compound-treated Brassica oleracea leaves at 1000 ppm after 48 hr by leaf-disc method relative to control. Format: functional.
For test [2], the system named is Pieris brassicae. The test can be described thus: Insecticidal activity against fasted third-instar larvae of Pieris brassicae infested in compound-treated Brassica oleracea leaves assessed as mortality at 1000 ppm after 6 days relative to control. Format: functional. The conditions noted are these: 144 h.

The mortality is the share of the test organisms that died. The molecule `CCCCCCCCC/C=C\CCC[C@@H](O)[C@@H](O)[C@H](CO[C@@H]1O[C@H](CO)[C@@H](O)[C@H](O)[C@H]1O)NC(=O)[C@H](O)CCCCCCCCCCCCCCCCCCCCCC` showed an Activity in the test with Pieris brassicae [1] of 62%. In the test with Pieris brassicae [2], the mortality at 1000 ppm was 50%.

In turn, `CCCCCCCCC/C=C/CCC[C@@H](O)[C@@H](O)[C@H](CO)NC(=O)[C@H](O)CCCCCCCCCCCCCCCCCCCCCC` displayed an Activity with Pieris brassicae [1] of 3%. Besides, the mortality at 1000 ppm in the test on Pieris brassicae [2] was determined as 0%.

On to `CCCCCCCCCCCCC/C=C/[C@@H](O)[C@H](CO)NC(=O)[C@H](O)CCCCCCCCCCCCCCCCCCCCCC`, for which the Activity in the test with Pieris brassicae [1] is 0%. In the test with Pieris brassicae [2], the mortality at 1000 ppm was 0%.

Turning to `C/C=C(\C)C(=O)O[C@H]1C[C@@H](OC(C)=O)[C@@]2(C(=O)OC)CO[C@H]3[C@@H](O)[C@@](C)([C@]45O[C@@]4(C)[C@@H]4C[C@H]5O[C@@H]5OC=C[C@@]54O)[C@H]4[C@]1(CO[C@]4(O)C(=O)OC)[C@@H]32` [AZADIRACHTIN A], the Activity in the test with Pieris brassicae [1] is 99.5%. Moreover, in the test with Pieris brassicae [2], the mortality at 1000 ppm was found to be 100%.

Turning to `C=C1[C@@H]2[C@@H](OC(=O)C=C[C@@]2(C)[C@H]2CC(=O)OC2(C)C)[C@H](OC(C)=O)[C@@]2(C)[C@H](C3=CCN(C(=O)CCNN)C3=O)C[C@H]3O[C@]132` [MUNRONIAMIDE], the Activity with Pieris brassicae [1] is on record as 27.6%. Moreover, the mortality at 1000 ppm with Pieris brassicae [2] was determined as 10%.
